Data from patent publication US20260364190A1, “ANTIBODY DRUG CONJUGATE PLATFORMS” (BEONE MEDICINES I GMBH, priority 2023, published 2026).

Legend:
A375 cells = assay: Payload cellular killing in A375 cancer line; type: cell-based, human; conditions: Cell Titer-Glo
Description: A375 (ATCC, CRL-1619). […] The base medium for A375 is DMEM, high glucose, GlutaMAX™ Supplement (Gibco, 10566024). […] The cell line was grown in a humidified 5% CO2 atmosphere at 37 °C, and was regularly tested for the presence of mycoplasma with MycoAlert™ PLUS Mycoplasma Detection Kit (Lonza, LT07-710).
(§1) Payload cellular killing was assessed in A375 and Calu-6 cancer lines. Cells were seeded (A375 (1E3/well) or Calu-6 (2E3/well)) into a 96-well plate (Greiner: 655090), at 100 μl/well and incubated at 37 °C, 5% CO2, overnight. Fresh growth medium was added containing varying concentrations of compounds, 50 μl/well, and incubated at 37 °C, 5% CO2, for 6 days. The cell viability was detected by Cell Titer-Glo (Promega, G7573). 70 μL of CellTiter-Glo® Reagent was added to each well. The plates were allowed to incubate at room temperature for 10 minutes to stabilize the luminescent signal. The plates were analyzed with a microplate reader.

Calu-6 cells = assay: Payload cellular killing in Calu-6 cancer line; type: cell-based; conditions: 6 days, Cell Titer-Glo
Description: Calu-6 (ATCC, HTB-56). […] The base medium for Calu-6 is Eagle's Minimum Essential Medium (ATCC, 30-2003). […] The cell line was grown in a humidified 5% CO2 atmosphere at 37 °C, and was regularly tested for the presence of mycoplasma with MycoAlert™ PLUS Mycoplasma Detection Kit (Lonza, LT07-710).
as §1

| Structure (SMILES) | EC50 (A375 cells; Homo sapiens, A-375, 6 days) [nM] | Emax (A375 cells; Homo sapiens, A-375, 6 days) [%] | EC50 (Calu-6 cells; Homo sapiens) [nM] | Emax (Calu-6 cells; Homo sapiens) [%] | EC50 (A375 cells; 6 days) [nM] | Emax (%) (A375 cells; 6 days) | EC50 (Calu-6 cells) [nM] | Emax (%) (Calu-6 cells) |
| --- | --- | --- | --- | --- | --- | --- | --- | --- |
| CC[C@@]1(O)C(=O)OCc2c1cc1n(c2=O)Cc2c-1nc1cc3c(c4c1c2[C@@H](NC(=O)OCCO)CC4)OCO3 [P10, 2-hydroxyethyl ((1S,10S)-10-ethyl-10-hydroxy-11,14-dioxo-2,3,10,11,14,16-hexahydro-1H,13H-benzo[de][1,3]dioxolo[4,5-g]pyrano[3′,4′:6,7]indolizino[1,2-b]quinolin-1-yl)carbamate] | 2.2 | 100 | 0.7 | 97.4 | – | – | – | – |
| CC[C@@]1(O)C(=O)OCc2c1cc1n(c2=O)Cc2c-1nc1cc3c(c4c1c2[C@@H](NC(=O)C(C)(F)CO)CC4)OCO3 (stereo partly drawn) [P9, N-((1S,10S)-10-ethyl-10-hydroxy-11,14-dioxo-2,3,10,11,14,16-hexahydro-1H,13H-benzo[de][1,3]dioxolo[4,5-g]pyrano[3′,4′:67]indolizino[1,2-b]quinolin-1-yl)-2-fluoro-3-hydroxy-2-methylpropanamide] | – | – | – | – | 2.1 | 100.0 | 0.9 | 98.3 |
| CC[C@@]1(O)C(=O)OCc2c1cc1n(c2=O)Cc2c-1nc1cc(F)c(C)c3c1c2C(CN(C)CCO)CC3 (stereo partly drawn) [P11, (9S)-9-ethyl-5-fluoro-9-hydroxy-1-(((2-hydroxyethyl)(methyl)amino)methyl)-4-methyl-1,2,3,9,12,15-hexahydro-10H,13H-benzo[de]pyrano[3′,4′:6,7]indolizino[1,2-b]quinoline-10,13-dione] | 0.8 | – | – | 98 | – | – | – | – |
| CC[C@@]1(O)C(=O)OCc2c1cc1n(c2=O)Cc2c-1nc1cc(F)c(C)c3c1c2C(CCCO)CC3 (stereo partly drawn) [P3, (9S)-9-ethyl-5-fluoro-9-hydroxy-1-(3-hydroxypropyl)-4-methyl-1,2,3,9,12,15-hexahydro-10H,13H-benzo[de]pyrano[3′,4′:6,7]indolizino[1,2-b]quinoline-10,13-dione] | – | – | 0.2 | – | – | 100.0 | – | 99.2 |
| CC[C@@]1(O)C(=O)OCc2c1cc1n(c2=O)Cc2c-1nc1cc(F)c(C)c3c1c2C(CCO)CC3 (stereo partly drawn) [P5, (9S)-9-ethyl-5-fluoro-9-hydroxy-1-(2-hydroxyethyl)-4-methyl-1,2,3,9,12,15-hexahydro-10H,13H-benzo[de]pyrano[3′,4′:6,7]indolizino[1,2-b]quinoline-10,13-dione] | – | – | – | – | – | 100.0 | – | 98.1 |
